Values after ≈ are worked out from the molar mass of the structure shown.
Assays:
Assay in all cases: MIC, broth micro dilution assay (NCCLS)
Format in all cases: cell-based
[1] = tested on: Enterococcus faecalis A20688; settings: Mueller-Hinton medium, 35° C., 18 hours
Description: (§1) The serial broth dilution method used Mueller-Hinton medium except for the Streptococcus pneumoniae which was tested in 50% Mueller-Hinton medium and 50% Todd Hewitt medium. The final bacterial inoculate contained approximately 5×10^5 cfu/well and was run on microtiter plates. The volume of each well was 100 μL and the plates were incubated at 35° C. for 18 hours in ambient air. The MIC was defined as the lowest drug concentration that prevented visible growth.

[2] = tested on: Streptococcus pneumoniae A28272; settings: 50% Mueller-Hinton medium and 50% Todd Hewitt medium, 35° C., 18 hours
Description: as §1

[3] = tested on: Staphylococcus aureus A15090; settings: Mueller-Hinton medium, 35° C., 18 hours
Description: as §1

Row | Compound | MIC (μg/mL) Enterococcus faecalis A20688 [1] [µg/mL] | MIC (μg/mL) Streptococcus pneumoniae A28272 [2] [µg/mL] | MIC (μg/mL) Staphylococcus aureus A15090 [3] [µg/mL]
1 | C=C(NC(=O)c1csc(-c2nc3c(cc2O)-c2nc(cs2)C(=O)NC(C(C)O)C(=O)NC(=C(C)OC)c2nc(cs2)C(=O)NC2c4nc(cs4)C(=O)NC(COC(=O)c4c5c6c(cccc6n4OCCCS(=O)(=O)[O-])COC(=O)C(OC4CC(C)(O)C(N(C)C)C(C)O4)C2OC5)c2nc-3cs2)n1)C(N)=O.[Na+] (stereo not drawn) [Example 7] | 0.125 | 0.007 | 0.125
2 | C=C(NC(=O)c1csc(-c2nc3c(cc2O)-c2nc(cs2)C(=O)NC(C(C)O)C(=O)NC(=C(C)OC)c2nc(cs2)C(=O)NC2c4nc(cs4)C(=O)NC(COC(=O)c4c5c6c(cccc6n4OCC(N)=O)COC(=O)C(OC4CC(C)(O)C(N(C)C)C(C)O4)C2OC5)c2nc-3cs2)n1)C(N)=O (stereo not drawn) [Example 8] | 0.25 (≈ 0.167 µM) | 0.03 (≈ 0.0201 µM) | 0.5 (≈ 0.335 µM)
3 | COC(C)=C1NC(=O)C(C(C)O)NC(=O)c2csc(n2)-c2cc(OC)c(-c3nc(C(N)=O)cs3)nc2-c2csc(n2)C2COC(=O)c3c4c5c(cccc5n3OC)COC(=O)C(OC3CC(C)(O)C(N(C)C)C(C)O3)C(OC4)C(NC(=O)c3csc1n3)c1nc(cs1)C(=O)N2 (stereo not drawn) [Example 83] | 0.06 (≈ 0.043 µM) | 0.03 (≈ 0.0215 µM) | 0.03 (≈ 0.0215 µM)
4 | C=C(NC(=O)c1csc(-c2nc3c(cc2O)-c2nc(cs2)C(=O)NC(C(C)O)C(=O)NC(=C(C)OC)c2nc(cs2)C(=O)NC2c4nc(cs4)C(=O)NC(COC(=O)c4c5c6c(cccc6n4OCCN4CCOCC4)COC(=O)C(OC4CC(C)(O)C(N(C)C)C(C)O4)C2OC5)c2nc-3cs2)n1)C(N)=O.O=C(O)C(F)(F)F (stereo not drawn) [Example 27] | 0.06 | 0.015 | 0.25
5 | C=C(NC(=O)c1csc(-c2nc3c(cc2OP(=O)(OCc2ccccc2)OCc2ccccc2)-c2nc(cs2)C(=O)NC(C(C)O)C(=O)NC(=C(C)OC)c2nc(cs2)C(=O)NC2c4nc(cs4)C(=O)NC(COC(=O)c4c5c6c(cccc6n4O)COC(=O)C(OC4CC(C)(O)C(N(C)C)C(C)O4)C2OC5)c2nc-3cs2)n1)C(N)=O (stereo not drawn) [Example 34] | 1.0 (≈ 0.589 µM) | 0.125 (≈ 0.0736 µM) | 0.25 (≈ 0.147 µM)
6 | C=C(NC(=O)c1csc(-c2nc3c(cc2OCOP(=O)([O-])OC(C)(C)C)-c2nc(cs2)C(=O)NC(C(C)O)C(=O)NC(=C(C)OC)c2nc(cs2)C(=O)NC2c4nc(cs4)C(=O)NC(COC(=O)c4c5c6c(cccc6n4OCOP(=O)([O-])OC(C)(C)C)COC(=O)C(OC4CC(C)(O)C(N(C)C)C(C)O4)C2OC5)c2nc-3cs2)n1)C(N)=O.[Na+].[Na+] (stereo not drawn) [Example 81] | >128 | 8 | 128
7 | C=C(NC(=O)c1csc(-c2nc3c(cc2O)-c2nc(cs2)C(=O)NC(C(C)O)C(=O)NC(=C(C)OC)c2nc(cs2)C(=O)NC2c4nc(cs4)C(=O)NC(COC(=O)c4c5c6c(cccc6n4OCCCl)COC(=O)C(OC4CC(C)(O)C(N(C)C)C(C)O4)C2OC5)c2nc-3cs2)n1)C(N)=O.Cl (stereo not drawn) [Example 13] | 0.03 | 0.003 | 0.015
8 | C=C(NC(=O)c1csc(-c2nc3c(cc2O)-c2nc(cs2)C(=O)NC(C(C)O)C(=O)NC(=C(C)OC)c2nc(cs2)C(=O)NC2c4nc(cs4)C(=O)NC(COC(=O)c4c5c6c(cccc6n4OCc4ccc(C(=O)O)cc4)COC(=O)C(OC4CC(C)(O)C(N(C)C)C(C)O4)C2OC5)c2nc-3cs2)n1)C(N)=O (stereo not drawn) [Example 11] | >128 | 0.06 (≈ 0.0382 µM) | 16 (≈ 10.2 µM)

The next lines start with the values.

Row | MIC (μg/mL) Enterococcus faecalis A20688 [1] [µg/mL] | MIC (μg/mL) Streptococcus pneumoniae A28272 [2] [µg/mL] | MIC (μg/mL) Staphylococcus aureus A15090 [3] [µg/mL] | Compound
9 | 4.0 (≈ 2.44 µM) | 0.06 (≈ 0.0365 µM) | 4.0 (≈ 2.44 µM) | C=C(NC(=O)c1csc(-c2nc3c(cc2OCC(=O)OCCO)-c2nc(cs2)C(=O)NC(C(C)O)C(=O)NC(=C(C)OC)c2nc(cs2)C(=O)NC2c4nc(cs4)C(=O)NC(COC(=O)c4c5c6c(cccc6n4OCC(=O)OCCO)COC(=O)C(OC4CC(C)(O)C(N(C)C)C(C)O4)C2OC5)c2nc-3cs2)n1)C(N)=O (stereo not drawn) [Example 72]
10 | 0.015 | 0.03 | 0.03 | C=C(NC(=O)c1csc(-c2nc3c(cc2OC(C)=O)-c2nc(cs2)C(=O)NC(C(C)O)C(=O)NC(=C(C)OC)c2nc(cs2)C(=O)NC2c4nc(cs4)C(=O)NC(COC(=O)c4c5c6c(cccc6n4O)COC(=O)C(OC4CC(C)(O)C(N(C)C)C(C)O4)C2OC5)c2nc-3cs2)n1)C(N)=O.Cl (stereo not drawn) [Example 24]
11 | 0.25 (≈ 0.169 µM) | 0.06 (≈ 0.0406 µM) | 0.03 (≈ 0.0203 µM) | C=C(NC(=O)c1csc(-c2nc3c(cc2O)-c2nc(cs2)C(=O)NC(C(C)O)C(=O)NC(=C(C)OC)c2nc(cs2)C(=O)NC2c4nc(cs4)C(=O)NC(COC(=O)c4c5c6c(cccc6n4OC(C)=O)COC(=O)C(OC4CC(C)(O)C(N(C)C)C(C)O4)C2OC5)c2nc-3cs2)n1)C(N)=O (stereo not drawn) [Example 23]
12 | 0.5 (≈ 0.316 µM) | 0.03 (≈ 0.019 µM) | 0.25 (≈ 0.158 µM) | C=C(NC(=O)c1csc(-c2nc3c(cc2O)-c2nc(cs2)C(=O)NC(C(C)O)C(=O)NC(=C(C)OC)c2nc(cs2)C(=O)NC2c4nc(cs4)C(=O)NC(COC(=O)c4c5c6c(cccc6n4OP(=O)(O)OCCCl)COC(=O)C(OC4CC(C)(O)C(N(C)C)C(C)O4)C2OC5)c2nc-3cs2)n1)C(N)=O (stereo not drawn) [Example 65]
13 | 0.25 (≈ 0.165 µM) | 0.0005 (≈ 0.000329 µM) | 0.06 (≈ 0.0395 µM) | C=CCOc1cc2c(nc1-c1nc(C(=O)NC(=C)C(N)=O)cs1)-c1csc(n1)C1COC(=O)c3c4c5c(cccc5n3OCC=C)COC(=O)C(OC3CC(C)(O)C(N(C)C)C(C)O3)C(OC4)C(NC(=O)c3csc(n3)C(=C(C)OC)NC(=O)C(C(C)O)NC(=O)c3csc-2n3)c2nc(cs2)C(=O)N1 (stereo not drawn) [Example 74]
14 | 2.0 | 0.5 | >128 | C=C(NC(=O)c1csc(-c2nc3c(cc2O)-c2nc(cs2)C(=O)NC(C(C)O)C(=O)NC(=C(C)OC)c2nc(cs2)C(=O)NC2c4nc(cs4)C(=O)NC(COC(=O)c4c5c6c(cccc6n4OCCC[N+](C)(C)C)COC(=O)C(OC4CC(C)(O)C(N(C)C)C(C)O4)C2OC5)c2nc-3cs2)n1)C(N)=O (stereo not drawn) [Example 14]
15 | 0.25 (≈ 0.156 µM) | 0.007 (≈ 0.00437 µM) | 0.5 (≈ 0.312 µM) | C=C(NC(=O)c1csc(-c2nc3c(cc2O)-c2nc(cs2)C(=O)NC(C(C)O)C(=O)NC(=C(C)OC)c2nc(cs2)C(=O)NC2c4nc(cs4)C(=O)NC(COC(=O)c4c5c6c(cccc6n4OCCCNS(=O)(=O)N(C)C)COC(=O)C(OC4CC(C)(O)C(N(C)C)C(C)O4)C2OC5)c2nc-3cs2)n1)C(N)=O (stereo not drawn) [Example 49]
16 | 1.0 (≈ 0.669 µM) | 0.06 (≈ 0.0401 µM) | 0.25 (≈ 0.167 µM) | C=C(NC(=O)c1csc(-c2nc3c(cc2O)-c2nc(cs2)C(=O)NC(C(C)O)C(=O)NC(=C(C)OC)c2nc(cs2)C(=O)NC2c4nc(cs4)C(=O)NC(COC(=O)c4c5c6c(cccc6n4OCCCN)COC(=O)C(OC4CC(C)(O)C(N(C)C)C(C)O4)C2OC5)c2nc-3cs2)n1)C(N)=O (stereo not drawn) [Example 42]
17 | 0.125 (≈ 0.079 µM) | 0.003 (≈ 0.0019 µM) | 0.06 (≈ 0.0379 µM) | C=C(NC(=O)c1csc(-c2nc3c(cc2OCC(=O)OC)-c2nc(cs2)C(=O)NC(C(C)O)C(=O)NC(=C(C)OC)c2nc(cs2)C(=O)NC2c4nc(cs4)C(=O)NC(COC(=O)c4c5c6c(cccc6n4OCC(=O)OC)COC(=O)C(OC4CC(C)(O)C(N(C)C)C(C)O4)C2OC5)c2nc-3cs2)n1)C(N)=O (stereo not drawn) [Example 19]
18 | 2 (≈ 1.3 µM) | 0.03 (≈ 0.0195 µM) | 1.0 (≈ 0.651 µM) | C=C(NC(=O)c1csc(-c2nc3c(cc2O)-c2nc(cs2)C(=O)NC(C(C)O)C(=O)NC(=C(C)OC)c2nc(cs2)C(=O)NC2c4nc(cs4)C(=O)NC(COC(=O)c4c5c6c(cccc6n4OCCCNC(=N)N)COC(=O)C(OC4CC(C)(O)C(N(C)C)C(C)O4)C2OC5)c2nc-3cs2)n1)C(N)=O (stereo not drawn) [Example 48]
19 | 16 (≈ 9.85 µM) | 0.06 (≈ 0.0369 µM) | 64 (≈ 39.4 µM) | C=C(NC(=O)c1csc(-c2nc3c(cc2OCC(N)=O)-c2nc(cs2)C(=O)NC(C(C)O)C(=O)NC(=C(C)OC)c2nc(cs2)C(=O)NC2c4nc(cs4)C(=O)NC(COC(=O)c4c5c6c(cccc6n4OCOCC[Si](C)(C)C)COC(=O)C(OC4CC(C)(O)C(N(C)C)C(C)O4)C2OC5)c2nc-3cs2)n1)C(N)=O (stereo not drawn) [Example 78]

— patent US7022667B2, “O-derivatized nocathiacin derivatives” (Bristol-Myers Squibb Company, priority 2002, dated 2006)
